{"source": "patent US9765029B2", "about": "“Pyridine compounds as sodium channel blockers” (Purdue Pharma L.P., priority 2010, dated 2017)", "test_system": "FCA-induced inflammation of the rat hind paw", "assay": "Freund's complete adjuvant (FCA) model of inflammatory pain, paw withdrawal threshold (PWT)", "type": "in vivo", "method": "Test Animals: Each experiment uses rats weighing between 200-260 g at the start of the experiment. The rats are group-housed and have free access to food and water at all times, except prior to oral administration of a test compound when food is removed for 16 hours before dosing. A control group acts as a comparison to rats treated with a compound of Formulae I-XIII. The control group is administered the carrier as used for the test compound. The volume of carrier administered to the control group is the same as the volume of carrier and test compound administered to the test group.\nTo assess the actions of the compounds of Formulae I-XIII on the treatment of inflammatory pain the Freund's complete adjuvant (“FCA”) model of inflammatory pain was used. […] 24 hour post injection, the animal was assessed for response to noxious mechanical stimuli by determining the paw withdrawal threshold (PWT), or to noxious thermal stimuli by determining the paw withdrawal latency (PWL), as described below. […] Responses to noxious mechanical or thermal stimuli were determined 1, 3, and 5 hours post administration (admin). […]\nSensitivity to noxious mechanical stimuli can be measured in animals using the paw pressure test to assess mechanical hyperalgesia. […] PWT is determined once for each rat at each time point. PWT can be measured only in the injured paw, or in both the injured and non-injured paw. […]"}
{"compound": "NC(=O)[C@H](CO)NC(=O)c1cccc(-c2ccc(Oc3ccc(F)cc3)cc2)n1", "note": "[Compound 47, 6-[4-(4-fluoro-phenoxy)-phenyl]-pyridine-2-carboxylic acid ((S)-1-carbamoyl-2-hydroxy-ethyl)-amide]", "values": [{"measurement": "increase in PWT", "setting": "10 mg/kg oral (PO), 3 h", "result": "statistically significant increase"}, {"measurement": "increase in PWT", "setting": "30 mg/kg oral (PO), 1, 3 and 5 h", "result": "statistically significant increase"}]}
